Read-outs that look alike come from different tables or passages of the source.
What was measured:
[1] = biological target: EGFR Del19/T790M/C797S (Homo sapiens, UniProt P00533, C797S/DEL746-750/T790M); assay: Biochemical EGFR kinase inhibition assay (Lance Ultra TR-FRET), triple mutant del19/T790M/C797S
Procedure: (§1) Biochemical EGFR kinase assays were conducted using Lance Ultra time-resolved fluorescence resonance energy transfer (TR-FRET) technology from Perkin-Elmer. Compounds of the invention were initially diluted to 20 mM in 100% DMSO for storage and made into kinase buffer solution to create a compound concentration ranging from 0.003 μM and 10 μM.
(§2) Each kinase reactions were incubated at room temperature for 1 hour and then stopped by the addition of 4 μL of stop solution (10 mM EDTA). The specific Europium-labeled-anti-phosphopeptide antibody (PerkinElmer, AD0069) diluted in LANCE detection buffer was then added to a final concentration of 2 nM. After 60 minutes incubation at room temperature the LANCE signal was measured on an EnVision Multilabel Reader (Perkin-Elmer). Excitation wavelength was set at 320 nm and emission monitored at 615 nm (donor) and 665 nm (acceptor). The IC50 values were determined using GraphPad prism software (GraphPad Software, Inc., San Diego, CA, USA).

[2] = biological target: EGFR Del19/C797S (Homo sapiens, UniProt P00533, C797S/DEL746-750); assay: Biochemical EGFR kinase inhibition assay (Lance Ultra TR-FRET), double mutant del19/C797S
Procedure: as §1, §2

[3] = biological target: EGFR wildtype (WT) (Homo sapiens, UniProt P00533); assay: Biochemical EGFR kinase inhibition assay (Lance Ultra TR-FRET), wildtype
Procedure: as §1, §2

[4] = biological target: EGFR L858R/T790M/C797S (Homo sapiens, UniProt P00533, C797S/L858R/T790M); assay: Biochemical EGFR kinase inhibition assay (Lance Ultra TR-FRET), triple mutant L858R/T790M/C797S
Procedure: as §1, §2

[5] = Km ATP, read-out: IC50 Del19/T790M/C797S (nM) Km ATP
[6] = Km ATP, read-out: IC50 Del19/C797S (nM) Km ATP
[7] = Km ATP, read-out: IC50 WT (nM) Km ATP
[8] = IC50 Del19/T790M/C797S (nM), 100 μM ATP
[9] = IC50 L858R/T790M/C797S (nM), 100 μM ATP
[10] = IC50 Del19/C797S (nM), 100 μM ATP
[11] = Km ATP, read-out: IC50 L858R/T790M/C797S (nM) Km ATP
[12] = ATP at Km, read-out: IC50 Del19/T790M/C797S (nM), Km ATP
[13] = ATP at Km, read-out: IC50 WT (nM), Km ATP
[14] = ATP at Km, read-out: IC50 Del19/C797S (nM), Km ATP

EGFR L858R/T790M/C797S, sequence (P00533 25-1210 T790M/C797S/L858R): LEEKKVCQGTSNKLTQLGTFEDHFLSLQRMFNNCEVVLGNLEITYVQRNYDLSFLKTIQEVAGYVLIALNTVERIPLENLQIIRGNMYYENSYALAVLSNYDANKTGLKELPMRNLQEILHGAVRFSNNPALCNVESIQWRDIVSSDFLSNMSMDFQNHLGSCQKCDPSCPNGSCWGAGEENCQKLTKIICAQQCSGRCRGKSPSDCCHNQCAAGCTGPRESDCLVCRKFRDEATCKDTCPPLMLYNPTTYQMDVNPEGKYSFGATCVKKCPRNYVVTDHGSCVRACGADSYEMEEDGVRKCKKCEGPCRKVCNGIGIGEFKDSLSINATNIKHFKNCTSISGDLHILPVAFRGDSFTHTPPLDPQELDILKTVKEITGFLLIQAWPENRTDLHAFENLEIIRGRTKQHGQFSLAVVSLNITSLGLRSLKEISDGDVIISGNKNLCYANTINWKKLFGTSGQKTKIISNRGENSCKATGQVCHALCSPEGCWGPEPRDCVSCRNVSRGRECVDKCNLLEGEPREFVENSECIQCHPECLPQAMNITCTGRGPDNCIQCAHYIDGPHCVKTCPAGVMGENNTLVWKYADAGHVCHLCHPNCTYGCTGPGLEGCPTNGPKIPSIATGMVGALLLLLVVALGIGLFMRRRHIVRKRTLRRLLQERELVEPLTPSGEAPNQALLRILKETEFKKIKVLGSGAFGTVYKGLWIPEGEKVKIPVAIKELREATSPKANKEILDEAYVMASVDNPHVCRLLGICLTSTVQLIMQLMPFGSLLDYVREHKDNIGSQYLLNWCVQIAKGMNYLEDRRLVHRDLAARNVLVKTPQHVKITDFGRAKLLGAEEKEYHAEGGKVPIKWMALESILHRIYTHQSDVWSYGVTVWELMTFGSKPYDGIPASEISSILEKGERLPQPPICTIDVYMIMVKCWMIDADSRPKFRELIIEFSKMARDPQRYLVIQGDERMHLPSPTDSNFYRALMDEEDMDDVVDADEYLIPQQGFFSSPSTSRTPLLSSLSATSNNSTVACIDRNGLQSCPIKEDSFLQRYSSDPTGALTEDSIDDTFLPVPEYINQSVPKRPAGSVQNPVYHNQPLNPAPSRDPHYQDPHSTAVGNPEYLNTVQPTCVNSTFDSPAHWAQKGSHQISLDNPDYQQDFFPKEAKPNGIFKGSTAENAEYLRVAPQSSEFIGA
EGFR Del19/T790M/C797S, sequence (P00533 with tags, fused parts or gaps DEL746-750/T790M/C797S): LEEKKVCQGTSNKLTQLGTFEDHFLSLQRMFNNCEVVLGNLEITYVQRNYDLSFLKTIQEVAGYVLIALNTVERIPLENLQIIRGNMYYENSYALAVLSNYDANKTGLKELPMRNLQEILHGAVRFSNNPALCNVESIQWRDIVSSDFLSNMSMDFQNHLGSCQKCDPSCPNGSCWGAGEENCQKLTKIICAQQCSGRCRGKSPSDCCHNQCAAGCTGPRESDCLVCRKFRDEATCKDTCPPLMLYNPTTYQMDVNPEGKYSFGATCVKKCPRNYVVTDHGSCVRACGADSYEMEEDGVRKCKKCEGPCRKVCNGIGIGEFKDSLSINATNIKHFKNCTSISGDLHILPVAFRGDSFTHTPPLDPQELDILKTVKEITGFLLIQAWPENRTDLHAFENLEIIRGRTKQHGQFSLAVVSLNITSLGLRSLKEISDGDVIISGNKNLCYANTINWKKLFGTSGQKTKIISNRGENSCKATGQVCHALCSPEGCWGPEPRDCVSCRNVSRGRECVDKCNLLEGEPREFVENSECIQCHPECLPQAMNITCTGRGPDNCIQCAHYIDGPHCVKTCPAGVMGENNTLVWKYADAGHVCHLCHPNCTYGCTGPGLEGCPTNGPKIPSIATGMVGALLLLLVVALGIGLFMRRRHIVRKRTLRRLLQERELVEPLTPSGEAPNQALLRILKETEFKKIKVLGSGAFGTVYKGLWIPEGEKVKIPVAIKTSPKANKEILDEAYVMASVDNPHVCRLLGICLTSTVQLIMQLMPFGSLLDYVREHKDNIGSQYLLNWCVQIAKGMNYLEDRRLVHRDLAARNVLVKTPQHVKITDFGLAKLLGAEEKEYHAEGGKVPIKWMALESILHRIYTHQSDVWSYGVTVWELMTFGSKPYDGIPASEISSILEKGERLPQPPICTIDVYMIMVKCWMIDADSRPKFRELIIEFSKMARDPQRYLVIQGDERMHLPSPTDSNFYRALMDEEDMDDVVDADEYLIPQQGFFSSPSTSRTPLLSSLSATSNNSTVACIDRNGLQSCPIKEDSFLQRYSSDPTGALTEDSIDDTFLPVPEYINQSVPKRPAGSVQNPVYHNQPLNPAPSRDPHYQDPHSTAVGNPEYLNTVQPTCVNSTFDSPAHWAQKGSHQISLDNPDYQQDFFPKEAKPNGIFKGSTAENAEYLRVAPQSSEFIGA
EGFR Del19/C797S, sequence (P00533 with tags, fused parts or gaps DEL746-750/C797S): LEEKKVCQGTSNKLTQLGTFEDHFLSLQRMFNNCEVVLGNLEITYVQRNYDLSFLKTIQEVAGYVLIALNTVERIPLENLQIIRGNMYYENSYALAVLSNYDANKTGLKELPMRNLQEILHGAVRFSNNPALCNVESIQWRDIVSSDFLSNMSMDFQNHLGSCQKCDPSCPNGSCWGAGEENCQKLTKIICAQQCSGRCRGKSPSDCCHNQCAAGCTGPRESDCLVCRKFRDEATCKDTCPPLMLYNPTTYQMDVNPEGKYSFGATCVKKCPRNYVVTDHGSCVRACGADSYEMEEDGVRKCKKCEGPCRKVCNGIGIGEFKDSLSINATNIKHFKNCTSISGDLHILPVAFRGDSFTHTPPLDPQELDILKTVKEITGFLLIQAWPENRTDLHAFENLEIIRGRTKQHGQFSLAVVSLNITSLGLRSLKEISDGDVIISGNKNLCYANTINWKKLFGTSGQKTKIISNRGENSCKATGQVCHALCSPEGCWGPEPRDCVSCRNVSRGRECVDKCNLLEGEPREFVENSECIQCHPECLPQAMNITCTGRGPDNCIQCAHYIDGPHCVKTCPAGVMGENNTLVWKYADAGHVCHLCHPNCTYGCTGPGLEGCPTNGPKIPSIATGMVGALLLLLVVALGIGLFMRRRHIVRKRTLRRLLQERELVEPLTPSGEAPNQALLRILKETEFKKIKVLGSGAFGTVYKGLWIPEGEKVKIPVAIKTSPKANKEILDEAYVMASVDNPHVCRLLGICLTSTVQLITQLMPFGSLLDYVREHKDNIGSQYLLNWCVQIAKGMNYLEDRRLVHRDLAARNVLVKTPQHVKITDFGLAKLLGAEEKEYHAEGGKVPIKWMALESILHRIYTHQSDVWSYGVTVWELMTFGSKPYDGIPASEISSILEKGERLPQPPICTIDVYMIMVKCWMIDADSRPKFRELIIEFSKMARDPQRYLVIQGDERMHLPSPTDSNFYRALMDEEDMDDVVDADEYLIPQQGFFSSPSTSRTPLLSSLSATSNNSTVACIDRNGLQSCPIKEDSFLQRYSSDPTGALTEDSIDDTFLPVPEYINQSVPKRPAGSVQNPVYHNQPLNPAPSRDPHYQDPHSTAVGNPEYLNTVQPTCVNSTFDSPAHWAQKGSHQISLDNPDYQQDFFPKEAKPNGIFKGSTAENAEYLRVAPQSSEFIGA
EGFR wildtype (WT), sequence (P00533 25-1210): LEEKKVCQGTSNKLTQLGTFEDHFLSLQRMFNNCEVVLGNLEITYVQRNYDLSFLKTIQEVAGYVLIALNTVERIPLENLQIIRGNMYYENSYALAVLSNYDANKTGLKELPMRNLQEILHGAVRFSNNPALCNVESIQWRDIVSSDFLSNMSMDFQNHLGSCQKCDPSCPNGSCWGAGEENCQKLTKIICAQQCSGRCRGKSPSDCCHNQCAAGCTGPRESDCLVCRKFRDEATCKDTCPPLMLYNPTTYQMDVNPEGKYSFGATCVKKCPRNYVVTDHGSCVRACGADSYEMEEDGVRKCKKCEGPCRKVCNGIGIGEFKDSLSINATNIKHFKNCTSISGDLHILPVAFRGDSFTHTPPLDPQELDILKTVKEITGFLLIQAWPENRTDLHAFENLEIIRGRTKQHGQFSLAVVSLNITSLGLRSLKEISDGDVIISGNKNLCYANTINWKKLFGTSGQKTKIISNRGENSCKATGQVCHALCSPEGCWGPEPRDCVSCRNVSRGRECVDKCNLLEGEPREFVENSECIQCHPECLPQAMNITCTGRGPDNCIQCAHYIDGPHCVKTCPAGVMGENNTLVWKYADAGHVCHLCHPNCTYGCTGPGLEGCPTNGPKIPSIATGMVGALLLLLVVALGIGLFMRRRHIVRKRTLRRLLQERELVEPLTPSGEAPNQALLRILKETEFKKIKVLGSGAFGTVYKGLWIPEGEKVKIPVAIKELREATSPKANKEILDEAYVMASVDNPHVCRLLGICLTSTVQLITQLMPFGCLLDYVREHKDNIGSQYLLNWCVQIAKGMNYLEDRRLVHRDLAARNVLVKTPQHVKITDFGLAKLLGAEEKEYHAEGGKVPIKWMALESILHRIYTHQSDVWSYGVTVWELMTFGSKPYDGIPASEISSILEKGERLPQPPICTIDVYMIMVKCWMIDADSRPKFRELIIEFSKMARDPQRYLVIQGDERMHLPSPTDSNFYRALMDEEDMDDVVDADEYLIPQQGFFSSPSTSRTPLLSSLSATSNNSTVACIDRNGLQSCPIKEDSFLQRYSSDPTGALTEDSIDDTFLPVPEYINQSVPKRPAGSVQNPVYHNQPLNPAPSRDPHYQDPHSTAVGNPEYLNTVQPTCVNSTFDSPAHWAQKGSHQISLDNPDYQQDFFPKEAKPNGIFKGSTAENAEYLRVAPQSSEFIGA

| Structure (SMILES) | IC50 [1, 5] | IC50 [2, 6] | IC50 [3, 7] | IC50 [1, 8] | IC50 [4, 9] | IC50 [2, 10] | IC50 ([3]; IC50 WT (nM), 100 μM ATP) | IC50 [4, 11] | IC50 [1, 12] | IC50 [3, 13] | IC50 [2, 14] |
| --- | --- | --- | --- | --- | --- | --- | --- | --- | --- | --- | --- |
| CCS(=O)(=O)N1CCN(c2cc(Nc3ccnc(-c4cnn(S(=O)(=O)C5CC5)c4)n3)ncc2C#Cc2cnn(C)c2)CC1 [Example 3, 2-(1-(Cyclopropylsulfonyl)-1H-pyrazol-4-yl)-N-(4-(4-(ethylsulfonyl)piperazin-1-yl)-5-((1-methyl-1H-pyrazol-4-yl)ethynyl)pyridin-2-yl)pyrimidin-4-amine] | 6.6 nM | 240 nM | 3830 nM |  |  |  |  |  |  |  |  |
| O=S(=O)(C1CC1)n1cc(-c2nccc(Nc3cc(N4CCN(CCO)CC4)c(C#Cc4cnn(CCF)c4)cn3)n2)cn1 [Example 16, 2-(4-(2-((2-(1-(Cyclopropylsulfonyl)-1H-pyrazol-4-yl)pyrimidin-4-yl)amino)-5-((1-(2-fluoroethyl)-1H-pyrazol-4-yl)ethynyl)pyridin-4-yl)piperazin-1-yl)ethan-1-ol] | 4.5 nM | 68.6 nM | 145 nM | 3.3 nM | 10.1 nM | 165 nM | > 10000 nM |  |  |  |  |
| CC(C)Nc1cc(Nc2ccnc(-c3cnn(S(=O)(=O)C4CC4)c3)n2)ncc1C#Cc1cnn(C)c1 [Example 18, N^2-(2-(1-(Cyclopropylsulfonyl)-1H-pyrazol-4-yl)pyrimidin-4-yl)-N^4-isopropyl-5-((1-methyl-1H-pyrazol-4-yl)ethynyl)pyridine-2,4-diamine] | 2.2 nM | 35.5 nM | 213 nM | 1.6 nM | 1.1 nM | 47.3 nM | > 10000 nM | 3.3 nM |  |  |  |
| CC(C)Nc1cc(Nc2ccnc(-c3cnn(S(=O)(=O)C4CC4)c3)n2)ncc1C#Cc1cnn(C(C)C)c1 [Example 19, N^2-(2-(1-(Cyclopropylsulfonyl)-1H-pyrazol-4-yl)pyrimidin-4-yl)-N^4-isopropyl-5-((1-isopropyl-1H-pyrazol-4-yl)ethynyl)pyridine-2,4-diamine] | 4.4 nM | 41.8 nM | 1680 nM | 5.4 nM | 3.7 nM | 140 nM | > 10000 nM | 2.3 nM |  |  |  |
| CC(C)Nc1cc(Nc2ccnc(-c3cnn(S(=O)(=O)C4CC4)c3)n2)ncc1C#Cc1cccnc1 [Example 21, N^2-(2-(1-(Cyclopropylsulfonyl)-1H-pyrazol-4-yl)pyrimidin-4-yl)-N^4-isopropyl-5-(pyridin-3-ylethynyl)pyridine-2,4-diamine] | 0.8 nM | 34.3 nM | 374 nM |  |  |  |  | 1.8 nM |  |  |  |
| COCCC#Cc1cnc(Nc2ccnc(-c3cnn(S(=O)(=O)C4CC4)c3)n2)cc1NC(C)C [Example 22, N^2-(2-(1-(Cyclopropylsulfonyl)-1H-pyrazol-4-yl)pyrimidin-4-yl)-N^4-isopropyl-5-(4-methoxybut-1-yn-1-yl)pyridine-2,4-diamine] | 2.8 nM | 122 nM | 630 nM |  |  |  |  | 5.4 nM |  |  |  |
| CCC(C)Nc1cc(Nc2ccnc(-c3cnn(S(=O)(=O)C4CC4)c3)n2)ncc1C#Cc1cnn(C)c1 (stereo not shown) [Example 24, N^4-(sec-Butyl)-N^2-(2-(1-(cyclopropylsulfonyl)-1H-pyrazol-4-yl)pyrimidin-4-yl)-5-((1-methyl-1H-pyrazol-4-yl)ethynyl)pyridine-2,4-diamine] | 2.7 nM | 32.9 nM | 462 nM |  |  |  |  | 4.4 nM |  |  |  |
| CCC(C)Nc1cc(Nc2ccnc(-c3cnn(S(=O)(=O)C4CC4)c3)n2)ncc1C#Cc1cnn(C(C)C)c1 (stereo not shown) [Example 25, N^4-(sec-Butyl)-N^2-(2-(1-(cyclopropylsulfonyl)-1H-pyrazol-4-yl)pyrimidin-4-yl)-5-((1-isopropyl-1H-pyrazol-4-yl)ethynyl)pyridine-2,4-diamine] | 6.9 nM | 105 nM | 915 nM |  |  |  |  | 6.5 nM |  |  |  |
| CCC(C)Nc1cc(Nc2ccnc(-c3cnn(S(=O)(=O)C4CC4)c3)n2)ncc1C#Cc1cnn(CCF)c1 (stereo not shown) [Example 26, N^4-(sec-Butyl)-N^2-(2-(1-(cyclopropylsulfonyl)-1H-pyrazol-4-yl)pyrimidin-4-yl)-5-((1-(2-fluoroethyl)-1H-pyrazol-4-yl)ethynyl)pyridine-2,4-diamine] | 3.1 nM | 58.1 nM | 545 nM |  |  |  |  | 3.6 nM |  |  |  |
| CN(CCO)c1cc(Nc2ccnc(-c3cnn(S(=O)(=O)C4CC4)c3)n2)ncc1C#Cc1cnn(C)c1 [Example 37, 2-((2-((2-(1-(Cyclopropylsulfonyl)-1H-pyrazol-4-yl)pyrimidin-4-yl)amino)-5-((1-methyl-1H-pyrazol-4-yl)ethynyl)pyridin-4-yl)(methyl)amino)ethan-1-ol] | 20.2 nM |  | 435 nM |  |  | 870 nM | > 10000 nM |  |  |  |  |
| CN(CCO)c1cc(Nc2ccnc(-c3cnn(S(=O)(=O)C4CC4)c3)n2)ncc1C#Cc1cnn(CCF)c1 [Example 38, 2-((2-((2-(1-(Cyclopropylsulfonyl)-1H-pyrazol-4-yl)pyrimidin-4-yl)amino)-5-((1-(2-fluoroethyl)-1H-pyrazol-4-yl)ethynyl)pyridin-4-yl)(methyl)amino)ethan-1-ol] | 17.6 nM |  | 368 nM |  |  | 464 nM | > 10000 nM |  |  |  |  |
| CC(C)Oc1cc(Nc2ccnc(-c3cnn(S(=O)(=O)C4CC4)c3)n2)ncc1C#Cc1cnn(C)c1 [Example 54, 2-(1-(Cyclopropylsulfonyl)-1H-pyrazol-4-yl)-N-(4-isopropoxy-5-((1-methyl-1H-pyrazol-4-yl)ethynyl)pyridin-2-yl)pyrimidin-4-amine] | 6.1 nM | 138 nM | 2580 nM |  |  |  |  | 13.2 nM |  |  |  |
| CC(C)Oc1cc(Nc2ccnc(-c3cnn(S(=O)(=O)C4CC4)c3)n2)ncc1C#Cc1cnn(CCF)c1 [Example 55, 2-(1-(Cyclopropylsulfonyl)-1H-pyrazol-4-yl)-N-(5-((1-(2-fluoroethyl)-1H-pyrazol-4-yl)ethynyl)-4-isopropoxypyridin-2-yl)pyrimidin-4-amine] | 7 nM | 398 nM | 2630 nM |  |  |  |  | 19.1 nM |  |  |  |
| CCC(C)Oc1cc(Nc2ccnc(-c3cnn(S(=O)(=O)C4CC4)c3)n2)ncc1C#Cc1cnn(C)c1 (stereo not shown) [Example 56, N-(4-(sec-Butoxy)-5-((1-methyl-1H-pyrazol-4-yl)ethynyl)pyridin-2-yl)-2-(1-(cyclopropylsulfonyl)-1H-pyrazol-4-yl)pyrimidin-4-amine] | 7.6 nM | 291 nM | > 10000 nM |  |  |  |  | 24.2 nM |  |  |  |
| CCC(C)Oc1cc(Nc2ccnc(-c3cnn(S(=O)(=O)C4CC4)c3)n2)ncc1C#Cc1cnn(C(C)C)c1 (stereo not shown) [Example 57, N-(4-(sec-Butoxy)-5-((1-isopropyl-1H-pyrazol-4-yl)ethynyl)pyridin-2-yl)-2-(1-(cyclopropylsulfonyl)-1H-pyrazol-4-yl)pyrimidin-4-amine] | 13.9 nM | 493 nM |  |  |  |  |  | 26.1 nM |  |  |  |
| CC(C)Nc1cc(Nc2ccnc(-c3cnn(S(=O)(=O)C4CC4)c3)n2)ncc1C#CC(C)(C)O [Example 204, 4-(6-((2-(1-(Cyclopropylsulfonyl)-1H-pyrazol-4-yl)pyrimidin-4-yl)amino)-4-(isopropylamino)pyridin-3-yl)-2-methylbut-3-yn-2-ol] |  |  |  |  |  | 187 nM | > 10000 nM |  | 22.7 nM | 264 nM |  |
| CC(C)Nc1cc(Nc2ccnc(-c3cnn(S(=O)(=O)C4CC4)c3)n2)ncc1C#Cc1csc(C2CC2)n1 [Example 205, N^2-(2-(1-(Cyclopropylsulfonyl)-1H-pyrazol-4-yl)pyrimidin-4-yl)-5-((2-cyclopropylthiazol-4-yl)ethynyl)-N^4-isopropylpyridine-2,4-diamine] |  |  |  |  |  |  |  |  | 18.3 nM | 587 nM | 265 nM |
| CC(C)Nc1cc(Nc2ccnc(-c3cnn(S(=O)(=O)C4CC4)c3)n2)ncc1C#CC1CCOCC1 [Example 206, N^2-(2-(1-(Cyclopropylsulfonyl)-1H-pyrazol-4-yl)pyrimidin-4-yl)-N^4-isopropyl-5-((tetrahydro-2H-pyran-4-yl)ethynyl)pyridine-2,4-diamine] |  |  |  |  |  |  |  |  | 3.5 nM | 201 nM | 69.1 nM |
| CC(C)n1cc(C#Cc2cnc(Nc3ccnc(-c4cnn(S(=O)(=O)C5CC5)c4)n3)cc2-c2cnn(C3CC3)c2)cn1 [Example 236, N-(4-(1-cyclopropyl-1H-pyrazol-4-yl)-5-((1-isopropyl-1H-pyrazol-4-yl)ethynyl)pyridin-2-yl)-2-(1-(cyclopropylsulfonyl)-1H-pyrazol-4-yl)pyrimidin-4-amine] | 11.3 nM | 359 nM |  |  |  |  |  | 45.3 nM |  |  |  |
